# Measured values reported in US12479847B2 (DANA-FARBER CANCER INSTITUTE, INC., priority 2019, dated 2025).
# Like-named read-outs stand apart in the source and are kept apart here.
# How the values were obtained:
# Assay in all cases: KINOMEscan (ScanMAX) kinase profiling
# Type in all cases: binding
# panel of 468 kinases [1] = target: T1, panel of 468 kinases (Homo sapiens, UniProt Q8IVH8); details: MAP4K3; 1 μM; read-out: % control
# T1 construct: purchased KINOMEscan (ScanMAX) service
# T1 sequence (Q8IVH8 1-894): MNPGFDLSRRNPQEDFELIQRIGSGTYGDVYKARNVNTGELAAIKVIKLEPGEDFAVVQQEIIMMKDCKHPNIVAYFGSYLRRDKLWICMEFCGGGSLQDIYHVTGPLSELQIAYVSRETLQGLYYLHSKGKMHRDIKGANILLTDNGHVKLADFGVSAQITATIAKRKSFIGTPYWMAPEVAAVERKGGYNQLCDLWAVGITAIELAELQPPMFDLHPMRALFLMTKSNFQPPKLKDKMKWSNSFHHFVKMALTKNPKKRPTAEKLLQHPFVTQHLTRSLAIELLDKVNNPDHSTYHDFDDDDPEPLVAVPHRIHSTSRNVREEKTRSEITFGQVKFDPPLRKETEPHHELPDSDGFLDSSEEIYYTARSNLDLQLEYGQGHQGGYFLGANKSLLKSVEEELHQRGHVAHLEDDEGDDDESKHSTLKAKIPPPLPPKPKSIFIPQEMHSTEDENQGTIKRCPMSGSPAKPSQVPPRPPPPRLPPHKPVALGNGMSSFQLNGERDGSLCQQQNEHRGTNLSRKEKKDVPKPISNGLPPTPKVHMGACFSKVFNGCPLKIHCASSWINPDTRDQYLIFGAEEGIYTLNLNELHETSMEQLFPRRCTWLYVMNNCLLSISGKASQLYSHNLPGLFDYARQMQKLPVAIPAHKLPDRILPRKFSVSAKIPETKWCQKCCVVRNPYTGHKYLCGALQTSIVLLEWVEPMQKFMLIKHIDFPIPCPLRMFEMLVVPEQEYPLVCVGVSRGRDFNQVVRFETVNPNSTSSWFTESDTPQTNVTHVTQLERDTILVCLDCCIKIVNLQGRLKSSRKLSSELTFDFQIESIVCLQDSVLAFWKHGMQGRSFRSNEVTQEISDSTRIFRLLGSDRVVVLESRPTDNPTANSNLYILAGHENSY
# panel of 468 kinases [2] = target: T2, panel of 468 kinases (Homo sapiens, UniProt Q14004); details: CDC2L5; 1 μM; read-out: % control
# T2 construct: purchased KINOMEscan (ScanMAX) service
# T2 sequence (Q14004 whole entry): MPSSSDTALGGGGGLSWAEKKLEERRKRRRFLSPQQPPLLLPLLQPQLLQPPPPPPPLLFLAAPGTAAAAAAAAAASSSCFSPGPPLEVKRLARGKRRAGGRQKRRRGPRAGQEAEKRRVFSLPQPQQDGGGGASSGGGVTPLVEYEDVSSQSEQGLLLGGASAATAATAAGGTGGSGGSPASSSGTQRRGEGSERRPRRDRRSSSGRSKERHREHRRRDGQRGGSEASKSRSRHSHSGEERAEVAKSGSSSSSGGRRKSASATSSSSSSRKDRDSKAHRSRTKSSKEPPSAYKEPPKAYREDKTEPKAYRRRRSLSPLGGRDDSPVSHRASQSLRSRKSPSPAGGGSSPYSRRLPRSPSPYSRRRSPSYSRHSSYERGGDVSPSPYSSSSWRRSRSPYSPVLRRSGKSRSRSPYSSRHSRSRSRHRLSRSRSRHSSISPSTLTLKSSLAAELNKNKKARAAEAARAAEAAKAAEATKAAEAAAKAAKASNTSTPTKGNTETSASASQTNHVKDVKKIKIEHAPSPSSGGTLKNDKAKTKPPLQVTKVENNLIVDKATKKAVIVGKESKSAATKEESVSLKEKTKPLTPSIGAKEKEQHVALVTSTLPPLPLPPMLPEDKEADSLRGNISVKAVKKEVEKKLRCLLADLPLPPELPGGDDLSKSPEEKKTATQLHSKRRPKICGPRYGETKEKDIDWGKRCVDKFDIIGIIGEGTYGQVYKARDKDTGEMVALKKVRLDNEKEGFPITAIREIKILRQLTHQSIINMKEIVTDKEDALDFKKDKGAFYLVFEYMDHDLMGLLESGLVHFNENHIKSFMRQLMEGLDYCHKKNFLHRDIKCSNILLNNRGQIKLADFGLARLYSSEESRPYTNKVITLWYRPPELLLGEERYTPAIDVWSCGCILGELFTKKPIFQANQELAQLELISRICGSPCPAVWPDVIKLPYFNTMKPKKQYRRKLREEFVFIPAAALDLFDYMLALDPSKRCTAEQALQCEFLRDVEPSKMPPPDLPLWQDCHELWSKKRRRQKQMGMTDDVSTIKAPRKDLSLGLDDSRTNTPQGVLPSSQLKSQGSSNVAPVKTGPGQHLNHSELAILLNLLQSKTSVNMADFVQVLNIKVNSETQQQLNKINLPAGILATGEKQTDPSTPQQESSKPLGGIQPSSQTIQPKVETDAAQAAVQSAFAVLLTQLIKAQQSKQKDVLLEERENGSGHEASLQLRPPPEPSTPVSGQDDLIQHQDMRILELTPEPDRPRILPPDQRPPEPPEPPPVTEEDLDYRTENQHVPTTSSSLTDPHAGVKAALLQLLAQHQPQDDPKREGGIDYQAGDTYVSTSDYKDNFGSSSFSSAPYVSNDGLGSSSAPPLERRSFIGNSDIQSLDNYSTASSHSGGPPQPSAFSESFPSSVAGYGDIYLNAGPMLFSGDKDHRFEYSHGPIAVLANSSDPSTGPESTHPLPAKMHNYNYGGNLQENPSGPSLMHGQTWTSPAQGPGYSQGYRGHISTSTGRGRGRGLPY
# panel of 468 kinases [3] = target: T3, panel of 468 kinases (Homo sapiens, UniProt P00533, DEL752-759); details: EGFR(S752-I759del); 1 μM; read-out: % control
# T3 construct: purchased KINOMEscan (ScanMAX) service
# T3 sequence (P00533 with tags, fused parts or gaps DEL752-759): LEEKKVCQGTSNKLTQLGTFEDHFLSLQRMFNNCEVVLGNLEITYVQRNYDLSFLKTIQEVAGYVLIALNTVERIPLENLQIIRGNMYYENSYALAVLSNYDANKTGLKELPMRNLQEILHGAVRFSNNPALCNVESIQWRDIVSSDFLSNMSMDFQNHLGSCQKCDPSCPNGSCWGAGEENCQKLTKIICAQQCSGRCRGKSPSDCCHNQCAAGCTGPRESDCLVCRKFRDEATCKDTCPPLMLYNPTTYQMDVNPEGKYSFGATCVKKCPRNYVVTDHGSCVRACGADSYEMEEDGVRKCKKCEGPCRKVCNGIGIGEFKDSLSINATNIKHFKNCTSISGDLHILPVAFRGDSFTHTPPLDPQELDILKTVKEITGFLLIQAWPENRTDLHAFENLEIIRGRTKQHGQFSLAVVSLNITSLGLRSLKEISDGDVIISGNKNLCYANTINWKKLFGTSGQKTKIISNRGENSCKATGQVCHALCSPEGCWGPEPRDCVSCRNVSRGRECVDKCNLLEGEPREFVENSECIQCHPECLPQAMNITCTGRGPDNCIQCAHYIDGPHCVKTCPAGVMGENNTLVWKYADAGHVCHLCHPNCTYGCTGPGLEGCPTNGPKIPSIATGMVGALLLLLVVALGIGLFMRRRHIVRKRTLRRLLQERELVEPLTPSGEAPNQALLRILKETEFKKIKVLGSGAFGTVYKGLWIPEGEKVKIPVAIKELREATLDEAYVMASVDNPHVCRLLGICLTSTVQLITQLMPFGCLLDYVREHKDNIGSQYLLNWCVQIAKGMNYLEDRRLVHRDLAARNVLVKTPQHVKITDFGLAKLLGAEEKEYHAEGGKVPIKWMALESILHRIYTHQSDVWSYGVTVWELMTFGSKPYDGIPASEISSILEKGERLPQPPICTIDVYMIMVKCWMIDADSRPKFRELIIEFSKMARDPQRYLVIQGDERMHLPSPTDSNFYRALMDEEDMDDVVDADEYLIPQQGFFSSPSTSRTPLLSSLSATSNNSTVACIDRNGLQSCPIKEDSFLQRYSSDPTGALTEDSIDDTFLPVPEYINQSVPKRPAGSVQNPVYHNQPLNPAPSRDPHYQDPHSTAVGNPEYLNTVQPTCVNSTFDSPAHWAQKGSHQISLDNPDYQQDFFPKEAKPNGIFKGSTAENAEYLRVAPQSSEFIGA
# panel of 468 kinases [4] = target: T4, panel of 468 kinases (Homo sapiens, UniProt P51812); details: 1 μM, read-out: % control
# T4 construct: purchased KINOMEscan (ScanMAX) service
# T4 sequence (P51812 whole entry): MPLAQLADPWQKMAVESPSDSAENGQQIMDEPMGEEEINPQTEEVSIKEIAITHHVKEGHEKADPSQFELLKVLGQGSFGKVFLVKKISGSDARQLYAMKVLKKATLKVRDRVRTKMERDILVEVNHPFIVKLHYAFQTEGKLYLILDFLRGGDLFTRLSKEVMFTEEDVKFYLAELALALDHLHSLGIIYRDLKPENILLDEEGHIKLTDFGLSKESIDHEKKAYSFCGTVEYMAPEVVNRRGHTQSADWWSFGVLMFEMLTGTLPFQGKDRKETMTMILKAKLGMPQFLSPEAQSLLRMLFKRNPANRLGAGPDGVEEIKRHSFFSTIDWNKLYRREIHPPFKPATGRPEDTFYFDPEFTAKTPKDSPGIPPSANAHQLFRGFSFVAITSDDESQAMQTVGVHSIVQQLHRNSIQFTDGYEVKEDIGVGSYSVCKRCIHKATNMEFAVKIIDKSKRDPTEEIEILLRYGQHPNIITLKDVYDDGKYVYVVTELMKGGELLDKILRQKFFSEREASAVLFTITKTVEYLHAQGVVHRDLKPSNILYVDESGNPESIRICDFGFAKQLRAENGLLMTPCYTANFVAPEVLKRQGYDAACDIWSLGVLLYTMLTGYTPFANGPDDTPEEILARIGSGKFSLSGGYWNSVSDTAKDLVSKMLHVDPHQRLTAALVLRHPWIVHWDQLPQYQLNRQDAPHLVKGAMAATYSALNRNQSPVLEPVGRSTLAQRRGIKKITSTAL
# panel of 468 kinases [5] = target: T5, panel of 468 kinases (Homo sapiens, UniProt Q9UQ88); details: CDC2L2; 1 μM; read-out: % control
# T5 construct: purchased KINOMEscan (ScanMAX) service
# T5 sequence (Q9UQ88 1-783): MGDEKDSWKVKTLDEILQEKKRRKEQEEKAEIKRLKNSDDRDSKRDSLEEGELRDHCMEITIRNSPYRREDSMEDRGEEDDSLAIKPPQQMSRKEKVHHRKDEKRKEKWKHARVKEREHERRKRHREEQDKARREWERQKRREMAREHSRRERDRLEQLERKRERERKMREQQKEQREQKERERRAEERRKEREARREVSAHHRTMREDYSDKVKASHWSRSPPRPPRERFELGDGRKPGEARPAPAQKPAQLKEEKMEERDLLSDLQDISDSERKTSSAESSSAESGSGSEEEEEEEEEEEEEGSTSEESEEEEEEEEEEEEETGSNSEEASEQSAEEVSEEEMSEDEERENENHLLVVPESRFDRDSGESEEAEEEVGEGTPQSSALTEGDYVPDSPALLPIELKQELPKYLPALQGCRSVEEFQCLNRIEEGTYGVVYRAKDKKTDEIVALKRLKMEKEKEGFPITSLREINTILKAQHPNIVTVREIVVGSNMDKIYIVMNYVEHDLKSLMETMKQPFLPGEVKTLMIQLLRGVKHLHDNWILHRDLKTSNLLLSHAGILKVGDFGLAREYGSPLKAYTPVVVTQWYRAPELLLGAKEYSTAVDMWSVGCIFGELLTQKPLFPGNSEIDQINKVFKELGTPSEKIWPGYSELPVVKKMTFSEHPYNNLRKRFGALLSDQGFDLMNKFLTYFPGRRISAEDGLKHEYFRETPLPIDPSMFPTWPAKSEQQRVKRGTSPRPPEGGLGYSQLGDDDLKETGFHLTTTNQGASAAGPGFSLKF
# panel of 468 kinases [6] = target: T6, panel of 468 kinases (Homo sapiens, UniProt P00519, Y253F); details: ABL1(Y253F)-phosphorylated; 1 μM; read-out: % control
# T6 construct: purchased KINOMEscan (ScanMAX) service
Compound,remaining binding at 1 µM (panel of 468 kinases [1]) [%],remaining binding at 1 µM (panel of 468 kinases [2]) [%],remaining binding at 1 µM (panel of 468 kinases [3]) [%],remaining binding at 1 µM (panel of 468 kinases [4]; RSK2(Kin.Dom.1-N-terminal)) [%],remaining binding at 1 µM (panel of 468 kinases [4]; RSK2(Kin.Dom.2-C-terminal)) [%],remaining binding at 1 µM (panel of 468 kinases [5]) [%],remaining binding at 1 µM (panel of 468 kinases [6]) [%]
"CNc1nc(Nc2ccc(S(=O)(=O)N3CCC(N4CCOCC4)CC3)cc2OC)nc2[nH]cc(Cl)c12 [Compound 12, 5-chloro-N2-(2-methoxy-4-((4-morpholinopiperidin-1-yl)sulfonyl)phenyl)-N4-methyl-7H-pyrrolo[2,3-d]pyrimidine-2,4-diamine]",98,54,100,88,28,100,51
"CNc1nc(Nc2ccc(C(=O)N3CCC(N4CCOCC4)CC3)c3c2OCO3)nc2[nH]cc(Cl)c12 [Compound 75, (7-((5-chloro-4-(methylamino)-7H-pyrrolo[2,3-d]pyrimidin-2-yl)amino)benzo[d][1,3]dioxol-4-yl)(4-morpholinopiperidin-1-yl)methanone]",81,57,94,71,31,100,53
"CNc1nc(Nc2ccc(P3(=O)CCN(C4CCOCC4)CC3)cc2OC)nc2[nH]cc(Cl)c12 [Compound 77, 4-(4-((5-chloro-4-(methylamino)-7H-pyrrolo[2,3-d]pyrimidin-2-yl)amino)-3-methoxyphenyl)-1-(tetrahydro-2H-pyran-4-yl)-1,4-azaphosphinane 4-oxide]",100,55,100,70,34,100,53
